Where a name gives a salt, the structure may show the parent alone. Read-outs that look alike come from different tables or passages of the source.
What was measured:
[1] = Storage stability of midodrine in compounds (60° C., 20 days; discoloration and remaining midodrine by HPLC); type: physicochemical; conditions: 3 parts midodrine + 100 parts compound, sealed; for STORAGE STABILITY OF MIDODRINE: RATIO OF REMAINING MIDODRINE (% BY WEIGHT): HPLC
Description: Then the color of the mixture after storage was visually observed. When the color was found unchanged compared with that before the storage, the mixture was evaluated as “excellent.” When discoloration was found, the mixture was evaluated as “bad.”
The weight W5 (g) of non-decomposed midodrine remaining in the mixture after storage was quantified by HPLC, and the ratio (% by weight) of remaining midodrine to the amount W6 (g) of midodrine added was computed using the following formula (1).
Ratio(% by weight)of remaining midodrine=100×(W5/W6) (1)

[2] = Dissolvability of midodrine in monomers (visual observation); type: physicochemical; conditions: 3 parts by weight midodrine in 100 parts by weight of the monomer; observed immediately and after 7 days at 25° C.
Description: High: No deposition of midodrine was found in any of the midodrine solution immediately after preparation and the midodrine solution after storage for 7 days.
Middle: Deposition of midodrine was found in the solution immediately after preparation, but no deposition of midodrine was found in the midodrine solution after storage for 7 days.
Low: Deposition of midodrine was found in the midodrine solution immediately after preparation and also in the midodrine solution after storage for 7 days.

[3] = Solubility of midodrine at 25° C. in monomers / compounds (saturated solution, HPLC)
Description: One hundred parts by weight of a monomer shown in TABLE 1 and 3 parts by weight of midodrine were sufficiently mixed to prepare a midodrine solution, and the dissolved state of midodrine in the midodrine solution was visually observed. The midodrine solution was stored at a temperature of 25° C. for 7 days, and then the dissolved state of midodrine was again visually observed. The dissolvability of midodrine was evaluated according to the following criteria.
A midodrine solution composed of 50 parts by weight of midodrine and 950 parts by weight of a compound shown in TABLE 2 and used as a solvent was prepared. Then the midodrine solution was maintained at 50° C. for 15 minutes and subjected to ultrasonic shaking in a water bath at 25° C. for 10 minutes. The resultant midodrine solution was transferred to a centrifuge tube and left to stand at 25° C. for 2 hours. Then the midodrine solution was centrifuged at a rotation speed of 3,000 rpm using a centrifuge, and the presence or absence of crystals of midodrine on the bottom of the centrifuge tube was observed. When no crystals of midodrine were deposited, the same procedure was repeated with the midodrine-to-compound weight ratio increased up to 200:800 to thereby prepare a saturated midodrine solution.
A certain amount of the supernatant of the saturated midodrine solution after centrifugation was collected, and the collected supernatant was subjected to HPLC measurement to quantify the weight W7 (g) of midodrine dissolved in the saturated midodrine solution.
(W8: weight (g) of compound used as solvent in saturated midodrine solution)

Row | SMILES | STORAGE STABILITY OF MIDODRINE: DISCOLORATION TEST ([1]; colour observed visually) | SOLUBILITY OF MIDODRINE [3] [g] | other results
1 | CC(C)CCCC(C)CCCC(C)CCCCC(C)CCCC(C)CCCC(C)C (centres unmarked) | EXCELLENT |  | 
2 | C=CN1CCCC1=O [1-VINYL-2-PYRROLIDONE] |  | >3.0 | DISSOLVABILITY OF MIDODRINE [2]: HIGH
3 | C=C(C)C(=O)OCC(CC)CCCC (centres unmarked) [2-ETHYLHEXYL METHACRYLATE] |  |  | DISSOLVABILITY OF MIDODRINE [2]: LOW
4 | C=CC(=O)O [ACRYLIC ACID] |  |  | DISSOLVABILITY OF MIDODRINE [2]: HIGH
5 | C=C(C)C(=O)OCCCC [BUTYL METHACRYLATE] |  |  | DISSOLVABILITY OF MIDODRINE [2]: LOW; SOLUBILITY OF MIDODRINE ([3]; in the monomer as solvent, 25° C., grams of midodrine per 100 g of solvent): 0.10 g
6 | OCCCCO [BUTYLENE GLYCOL] |  | 7.72 | STORAGE STABILITY OF MIDODRINE: DIS[…] ([1]; colour observed visually): EXCELLENT
7 | C=C(C)C(=O)OCCCCCCCCCCCC [DODECYL METHACRYLATE] |  | 0.02 | DISSOLVABILITY OF MIDODRINE [2]: LOW
8 | C=CC(=O)OCC [ETHYL ACRYLATE] |  | 0.25 | DISSOLVABILITY OF MIDODRINE [2]: LOW
9 | CCCCCCCCCCCC(=O)OCCCCCC [HEXYL LAURATE] | EXCELLENT | 0.02 | 
10 | CCCCCCCCC(CO)CCCCCC (centres unmarked) [HEXYLDECANOL] | EXCELLENT |  | Value in parentheses after the liquid solubilizing aid (solubility of midodrine in the compound) [3]: HEXYLDECANOL (0.26); STORAGE STABILITY OF MIDODRINE: RATIO OF REMAINING MIDODRINE (% BY WEIGHT) [1]: 90.4 % BY WEIGHT
11 | CCCCCCCCCCCCCC(=O)OC(C)C [ISOPROPYL MYRISTATE] | EXCELLENT |  | Value in parentheses after the liquid solubilizing aid (solubility of midodrine in the compound) [3]: ISOPROPYL MYRISTATE (0.02)
12 | CCCCCCCCCCCCCCCC(=O)OC(C)C [ISOPROPYL PALMITATE] | EXCELLENT |  | Value in parentheses after the liquid solubilizing aid (solubility of midodrine in the compound) [3]: ISOPROPYL PALMITATE (0.02)
13 | CC(C)CCCCCCCCCCCCCCC(=O)O [ISOSTEARIC ACID] | BAD |  | 
14 | CC(C)CCCCCCCCCCCCCCCO [ISOSTEARYL ALCOHOL] | EXCELLENT |  | 
15 | CCCCCCCCCCCCO [LAURYL ALCOHOL] | BAD |  | 
16 | NCCO [MONOETHANOLAMINE] | BAD |  | 
17 | CCCCCCC(O)CO (centres unmarked) [OCTANEDIOL] | BAD | 1.78 | STORAGE STABILITY OF MIDODRINE: RATIO OF REMAINING MIDODRINE (% BY WEIGHT) [1]: 48.0 % BY WEIGHT
18 | CCCCCCCCCCC(CO)CCCCCCCC (centres unmarked) [OCTYLDODECANOL] | EXCELLENT |  | STORAGE STABILITY OF MIDODRINE: RATIO OF REMAINING MIDODRINE (% BY WEIGHT) [1]: 100.0 % BY WEIGHT
19 | CCCCCCCC/C=C\CCCCCCCCO [OLEYL ALCOHOL] | BAD | 0.40 | 
20 | CC(O)CO (centres unmarked) [PROPYLENE GLYCOL] | EXCELLENT | 15.67 | 
21 | CC(=O)OCC(COC(C)=O)OC(C)=O [TRIACETIN] | EXCELLENT | 0.70 | 
22 | CCOC(=O)CC(O)(CC(=O)OCC)C(=O)OCC [TRIETHYL CITRATE] | EXCELLENT |  | 
